# Where a name gives a salt, the structure may show the parent alone.
# Target: T1, human A3AR (Homo sapiens, UniProt P0DMS8)
# T1 construct: expressed in transfected cells
# T1 sequence (P0DMS8 1-318): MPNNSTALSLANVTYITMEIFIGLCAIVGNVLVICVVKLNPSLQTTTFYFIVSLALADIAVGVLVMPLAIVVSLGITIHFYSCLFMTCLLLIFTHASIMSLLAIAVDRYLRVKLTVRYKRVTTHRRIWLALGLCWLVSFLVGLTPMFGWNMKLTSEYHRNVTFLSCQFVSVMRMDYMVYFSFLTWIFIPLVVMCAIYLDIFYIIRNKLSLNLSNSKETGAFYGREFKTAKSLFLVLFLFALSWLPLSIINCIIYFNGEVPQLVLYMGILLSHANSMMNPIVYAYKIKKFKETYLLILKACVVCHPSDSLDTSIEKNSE
# Experiment: LOPAC library primary screen: single concentration (10 μM) inhibition of 25 nM CA200645 binding, PHERAstar FS
# Details: not given
row,Compound,% 25 nM CA200645 binding
1,"N=C(N)NC(=O)c1nc(Cl)c(N2CCCCCC2)nc1N [5-(N,N-hexamethylene)amiloride]",87.5 ± 4.4%
2,Nc1nc2c(ncn2CCOCP(=O)(O)O)c(=O)[nH]1 [PMEG hydrate],97.6 ± 14.8%
3,COc1ccc(C2(O)OC(=O)C(c3ccc4c(c3)OCO4)=C2Cc2cc(OC)c(OC)c(OC)c2)cc1 (stereo not shown) [PD-156707],71.9 ± 8.4%
4,CN(C)CC[C@@H](c1ccc(Br)cc1)c1ccccn1 [(+)-Brompheniramine maleate],97.2 ± 7.4%
5,Br.CO[C@H]1CC=C2CCN3CCC4=C(CC(=O)OC4)[C@]23C1 [Dihydro-beta-erythroidine hydrobromide],94.0 ± 5.4%
6,COc1ccc(Cl)cc1C(=O)NCCc1ccc(S(=O)(=O)NC(=O)NC2CCCCC2)cc1 [Glybenclamide],92.8 ± 16.7%
7,CN1C[C@H](O)[C@@H](O)[C@H](O)[C@H]1CO [N-Methyl-1-deoxynojirimycin],100.7 ± 20.9%
8,CN[C@H]1CC[C@@H](c2ccc(Cl)c(Cl)c2)c2ccccc21 [Sertraline hydrochloride],101.1 ± 11.7%
9,Clc1ccc2nsnc2c1NC1=NCCN1 [Tizanidine hydrochloride],107.2 ± 6.1%
10,CCc1cccc(N(C)C(N)=Nc2cccc3ccccc23)c1 [CNS-1102],102.3 ± 11.4%
11,C=C1C[C@@]23CC[C@H]4[C@@](C)(CCC[C@@]4(C)C(=O)O)[C@@H]2CC[C@]1(O)C3 [Steviol],95.9 ± 19.9%
12,CCN(CC)CCNC(=O)c1cc(Cl)c(N)cc1OC.Cl [Metoclopramide hydrochloride],106.5 ± 2.9%
13,CN(C)CCC(c1ccc(Cl)cc1)c1ccccn1.O=C(O)/C=C\C(=O)O (racemic) [(±)-Chlorpheniramine maleate],99.2 ± 9.9%
14,Clc1ccc2c(N3CCN(CCCN4CCN(c5ccnc6cc(Cl)ccc56)CC4)CC3)ccnc2c1 [Piperaquine tetraphosphate tetrahydrate],96.8 ± 7.2%
15,CC(C)C(=O)Nc1ccc([N+](=O)[O-])c(C(F)(F)F)c1 [Flutamide],84.4 ± 23.0%
16,N[C@@H]1C[C@H]1c1ccccc1 [Tranylcypromine hydrochloride],100.1 ± 11.2%
17,O=C1CCC(c2ccc(-n3ccnc3)cc2)=NN1 [Imazodan],97.4 ± 12.7%
18,CN1[C@@H]2CC[C@H]1C[C@@H](OC(c1ccccc1)c1ccccc1)C2 [Benztropine mesylate],96.0 ± 5.8%
19,CC1=C(/C=C/C(C)=C/C=C/C(C)=C/C(=O)O)C(C)(C)CCC1 [Retinoic acid],93.6 ± 14.4%
20,NC(N)=Nc1ccc2[nH]c3c(c2c1)C[C@@]1(O)[C@H]2Cc4ccc(O)c5c4[C@@]1(CCN2CC1CC1)[C@H]3O5.O=C(O)C(F)(F)F.O=C(O)C(F)(F)F,93.9 ± 7.0%
21,COc1ccc(/C=C2\COc3ccc(C)cc3C2=O)cc1O [IMS2186],95.7 ± 10.2%
22,Br.CCCN(CCC)[C@@H]1CCc2cccc(O)c2C1 [R-(+)-8-Hydroxy-DPAT hydrobromide],83.0 ± 17.5%
23,NS(=O)(=O)c1cc(C(=O)O)c(NCc2ccco2)cc1Cl [Furosemide],95.7 ± 5.9%

row,Compound,% 25 nM CA200645 binding
1,Ro 20-1724,108.8 ± 2.1%
2,O=C(c1ccc2c(c1)OCCO2)N1CCCCC1 [CX 546],95.5 ± 26.6%
3,CC(C)(CO)Cc1cc(C(C)(C)C)c(O)c(C(C)(C)C)c1 [CGP-7930],87.6 ± 4.9%
4,NCC(O)(CS(=O)(=O)O)c1ccc(Cl)cc1 (stereo not shown) [2-Hydroxysaclofen],92.7 ± 0.2%
5,N[C@@H](CCCC(=O)O)C(=O)O [L-2-aminoadipic acid],101.5 ± 9.7%
6,Cc1ccc(S(=O)(=O)N[C@@H](Cc2ccccc2)C(=O)CCl)cc1,102.0 ± 13.7%
7,Cl.Clc1ccc(Cn2c(CN3CCCC3)nc3ccccc32)cc1 [Clemizole hydrochloride],99.7 ± 8.2%
8,COc1ccc2[nH]cc(CCN)c2c1.Cl [O-Methylserotonin hydrochloride],107.2 ± 4.7%
9,O=c1cc(O)cc(/C=C/c2ccc(O)c(O)c2)o1 [Hispidin],77.8 ± 19.6%
10,Clc1ccc(N2CCN(Cc3cc4ccccn4n3)CC2)cc1 [FAUC 213],76.8 ± 3.4%
11,Cc1cc(Cl)ccc1OCCCC(=O)NO [Droxinostat],96.3 ± 1.9%
12,O=C(Nc1nc2ccccc2n1CCN1CCOCC1)c1cccc([N+](=O)[O-])c1 [IRAK-1/4 Inhibitor I],61.3 ± 9.4%
13,Cn1ccnc1 [1-Methylimidazole],115.7 ± 16.4%
14,"c1ccc(-c2ccccn2)nc1 [2,2'-Bipyridyl]",105.2 ± 7.5%
15,O=C1NCc2c1c1c3ccccc3[nH]c1c1[nH]c3ccccc3c21 [Staurosporine aglycone],81.9 ± 6.1%
16,trans-(±)-ACPD,83.6 ± 13.4%
17,Cl.Nc1cc(Cl)c(N=C2NCCN2)c(Cl)c1 [p-Aminoclonidine hydrochloride],89.0 ± 23.3%
18,Oc1ccc2ccccc2c1SSc1c(O)ccc2ccccc12 [IPA-3],63.1 ± 15.2%
19,Cl.c1ccc2c(c1)CCC[C@H]2Nc1nc2ccccc2[nH]1 [NS8593 hydrochloride],91.2 ± 11.5%
20,"COC1=C(OC)C(=O)c2ccccc2C1=O [2,3-Dimethoxy-1,4-naphthoquinone]",99.3 ± 8.8%
21,O=c1[nH]c(=O)n([C@H]2C[C@H](O)[C@@H](CO)O2)cc1Br [5-Bromo-2'-deoxyuridine],101.6 ± 8.3%
22,C[N+](C)(C)CC=O [Betaine aldehyde chloride],95.0 ± 5.8%
23,CC(=O)[C@]1(O)Cc2c(O)c3c(c(O)c2[C@@H](O[C@H]2C[C@H](N)[C@H](O)[C@H](C)O2)C1)C(=O)c1ccccc1C3=O [Idarubicin],95.1 ± 1.7%

row,Compound,% 25 nM CA200645 binding
1,CCN1C(=O)C=CC1=O [N-Ethylmaleimide],99.8 ± 13.3%
2,CC[N+](CC)(CC)CC [Tetraethylammonium chloride],94.7 ± 8.6%
3,C[N+](C)(C)CC#CCN1CCCC1=O [Oxotremorine methiodide],101.3 ± 18.6%
4,CC(=O)Nc1nnc(S(N)(=O)=O)s1 [Acetazolamide],92.4 ± 4.0%
5,Cl.N[C@@H](Cc1cnc[nH]1)C(=O)O [L-Histidine hydrochloride],100.4 ± 6.4%
6,CNCC[C@H](Oc1ccc(C(F)(F)F)cc1)c1ccccc1.Cl [S-(+)-Fluoxetine hydrochloride],102.0 ± 9.9%
7,NS(=O)(=O)C#Cc1ccccc1 [Pifithrin-mu],92.3 ± 34.4%
8,Cc1cc(C(C)(C)C)cc(C)c1CC1=NCCN1 [Xylometazoline hydrochloride],106.7 ± 10.4%
9,Nc1nc2ccc(Cl)cc2n2c(-c3ccccc3)nnc12 [CP-66713],93.9 ± 10.2%
10,CCCN(CCC)CCc1cccc2c1CC(=O)N2 [Ropinirole hydrochloride],107.5 ± 15.4%
11,COc1ccc(C(CN(C)C)C2(O)CCCCC2)cc1 (stereo not shown) [Venlafaxine hydrochloride],97.3 ± 8.5%
12,COC(=O)[C@H]1[C@H]2C[C@H]3c4[nH]c5ccccc5c4CCN3C[C@H]2CC[C@@H]1O [Rauwolscine hydrochloride],96.5 ± 8.7%
13,C[C@H]1CCC/C=C/[C@@H]2C[C@H](O)C[C@H]2[C@H](O)/C=C/C(=O)O1,87.5 ± 5.2%
14,CC(C)(C)c1cc(/C=C(\C#N)C(N)=S)cc(C(C)(C)C)c1O [Tyrphostin AG 879],57.5 ± 23.0%
15,CC(N)(Cc1ccc(O)c(O)c1)C(=O)O (racemic),86.8 ± 7.1%
16,"Cn1c(=O)[nH]c2ncn(C)c2c1=O [1,7-Dimethylxanthine]",100.9 ± 19.4%
17,CC(CCc1ccccc1)NCC(O)c1ccc(O)c(C(N)=O)c1 (stereo not shown) [Labetalol hydrochloride],97.5 ± 13.9%
18,CN(C)C(=O)Oc1ccc[n+](C)c1 [Pyridostigmine bromide],92.0 ± 6.7%
19,NC(=O)CN1CC(O)CC1=O (stereo not shown) [Oxiracetam],97.9 ± 12.4%
20,N[C@@H](Cc1ccc(O)c(I)c1)C(=O)O [3-Iodo-L-tyrosine],96.8 ± 8.8%
21,COC(=O)C(C)(N)Cc1ccc(O)cc1.Cl (racemic),108.9 ± 8.2%
22,Cl.NC1(C(=O)O)CCCCC1,108.3 ± 1.1%
23,C/C=C(/C)C(=O)O[C@H]1C(C)=C2[C@H]([C@@H]1OC(=O)CCCCCCC)[C@@](C)(OC(C)=O)C[C@H](OC(=O)CCC)[C@@]1(O)[C@H]2OC(=O)[C@@]1(C)O [Thapsigargin],65.1 ± 10.7%

# Same assay, conditions: % of control wells (1% DMSO and 25 nM CA200645); compounds at 10 µM; […]; mean ± SD, three experiments in duplicate
row,Compound,% 25 nM CA200645 binding
1,O=C1Nc2ccccc2/C1=C1/Nc2ccccc2/C1=N\O [Indirubin-3'-oxime],50.6 ± 24.7%

# Same assay, conditions: % of control wells (1% DMSO and 25 nM CA200645); compounds at 10 µM; whole live cells expressing the A3AR; mean ± SD, three experiments in duplicate
row,Compound,% 25 nM CA200645 binding
1,Cc1ccccc1/C=C/C1=NCCN1 [Metrazoline oxalate],97.1 ± 2.0%
2,Cc1nc2c([nH]1)c(=O)n(C)c(=O)n2Cc1ccco1 [Furafylline],49.5± 5.8%

# Same assay, conditions: compounds tested at 10 µM; % of control wells (1% DMSO and 25 nM CA200645); whole live cells expressing the A3AR; mean ± SD, three experiments in duplicate
row,Compound,% 25 nM CA200645 binding
1,N[C@H](CCCP(=O)(O)O)C(=O)O [D(-)-2-Amino-5-phosphonopentanoic acid],109.4 ± 11.9%

# From publication PMC5733478, “A Non-imaging High Throughput Approach to Chemical Library Screening at the Unmodified Adenosine-A3 Receptor in Living Cells” (Frontiers in Pharmacology, 2017)
